# Measured values as given in US10072001B2, “Tank-binding kinase inhibitor compounds” (Gilead Sciences, Inc., priority 2014, dated 2018).
# Experiments:
# IKKε = IKKε (Homo sapiens (Human), UniProt Q14164); test: TR-FRET kinase assay, IKKε; type: biochemical; conditions: full length recombinant IKKε 0.3 nM, 2x Km ATP, 1 μM peptide, 240 min at 25° C.; geometric mean of minimum four determinations
# From the text: Biological Assay for TBK1 and IKKs:
# TBK1 = TBK1 (Homo sapiens (Human), UniProt Q9UHD2); test: TR-FRET kinase assay, TBK1; conditions: read-out: TBK1-IC50; full length recombinant TBK1 2.5 nM, 2x Km ATP, 1 μM peptide, 240 min at 25° C.; geometric mean of minimum four determinations
# Sequence of TBK1 (Q9UHD2 whole entry): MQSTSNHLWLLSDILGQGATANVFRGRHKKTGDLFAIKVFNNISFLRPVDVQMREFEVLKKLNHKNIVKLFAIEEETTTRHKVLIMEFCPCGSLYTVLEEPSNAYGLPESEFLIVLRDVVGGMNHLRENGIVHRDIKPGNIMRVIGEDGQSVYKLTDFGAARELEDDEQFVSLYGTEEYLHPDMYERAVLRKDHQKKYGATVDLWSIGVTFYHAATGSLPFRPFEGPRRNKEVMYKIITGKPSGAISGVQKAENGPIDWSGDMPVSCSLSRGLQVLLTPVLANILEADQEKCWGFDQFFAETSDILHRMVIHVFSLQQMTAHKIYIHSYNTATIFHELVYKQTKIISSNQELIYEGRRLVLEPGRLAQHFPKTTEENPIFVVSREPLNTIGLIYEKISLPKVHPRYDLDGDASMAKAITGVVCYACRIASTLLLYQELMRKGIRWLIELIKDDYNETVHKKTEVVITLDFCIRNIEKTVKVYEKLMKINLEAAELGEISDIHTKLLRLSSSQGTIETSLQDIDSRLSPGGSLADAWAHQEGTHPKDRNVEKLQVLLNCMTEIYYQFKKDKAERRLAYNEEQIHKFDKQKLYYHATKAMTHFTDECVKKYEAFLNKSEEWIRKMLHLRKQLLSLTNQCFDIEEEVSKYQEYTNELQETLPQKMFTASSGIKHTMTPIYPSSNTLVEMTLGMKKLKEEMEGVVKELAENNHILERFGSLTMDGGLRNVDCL
# Sequence of IKKε (Q14164 whole entry): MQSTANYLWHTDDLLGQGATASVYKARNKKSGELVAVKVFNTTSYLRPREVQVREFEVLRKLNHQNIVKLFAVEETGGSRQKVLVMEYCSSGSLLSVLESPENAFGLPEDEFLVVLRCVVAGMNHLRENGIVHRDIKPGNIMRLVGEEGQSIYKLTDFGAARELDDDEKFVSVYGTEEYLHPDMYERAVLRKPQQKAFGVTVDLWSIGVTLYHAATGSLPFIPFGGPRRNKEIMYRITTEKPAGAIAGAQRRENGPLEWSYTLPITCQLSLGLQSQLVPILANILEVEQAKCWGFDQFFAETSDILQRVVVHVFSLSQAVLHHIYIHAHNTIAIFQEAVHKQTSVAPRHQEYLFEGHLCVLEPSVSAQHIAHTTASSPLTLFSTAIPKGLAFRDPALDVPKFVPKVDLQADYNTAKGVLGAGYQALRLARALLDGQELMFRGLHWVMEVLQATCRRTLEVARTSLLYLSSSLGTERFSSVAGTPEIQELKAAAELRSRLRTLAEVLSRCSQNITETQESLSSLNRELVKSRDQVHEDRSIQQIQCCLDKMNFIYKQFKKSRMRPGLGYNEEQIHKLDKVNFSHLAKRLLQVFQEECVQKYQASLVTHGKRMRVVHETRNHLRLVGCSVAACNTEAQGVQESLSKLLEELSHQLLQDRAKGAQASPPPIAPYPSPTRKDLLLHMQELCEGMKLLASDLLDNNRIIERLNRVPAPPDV
SMILES,IC50 (IKKε),IC50 (TBK1)
"N#Cc1cc(-c2ccnc3[nH]c(C4=CC5CCC4C5)cc23)ccc1OC1CCOCC1 (centres unmarked) [Example 43, 5-(2-(bicyclo[2.2.1]hept-2-en-2-yl)-1H-pyrrolo[2,3-b]pyridin-4-yl)-2-((tetrahydro-2H-pyran-4-yl)oxy)benzonitrile]",> 1000 nM,434 nM
"Cn1cc(-c2nc3c(-c4ccc(OC5CCOCC5)c(C#N)c4)ncnc3[nH]2)cn1 [Example 213, 5-(8-(1-methyl-1H-pyrazol-4-yl)-9H-purin-6-yl)-2-((tetrahydro-2H-pyran-4-yl)oxy)benzonitrile]",30.2 nM,12.4 nM
"N#Cc1cc(-c2ccnc3[nH]c(-c4ccc(N5CCOCC5)cc4)cc23)ccc1O[C@H]1CCN(C(=O)CO)C1 [Example 23, (S)-2-((1-(2-hydroxyacetyl)pyrrolidin-3-yl)oxy)-5-(2-(4-morpholinophenyl)-1H-pyrrolo[2,3-b]pyridin-4-yl)benzonitrile]",64.9 nM,16.2 nM
"CNC(=O)c1ccc(-c2cc3c(-c4ccc(OC5CCOCC5)c(C#N)c4)ccnc3[nH]2)cc1 [Example 41, 4-(4-(3-cyano-4-((tetrahydro-2H-pyran-4-yl)oxy)phenyl)-1H-pyrrolo[2,3-b]pyridin-2-yl)-N-methylbenzamide]",5.59 nM,3.08 nM
"N#Cc1cc(-c2ccnc3[nH]c(C4=CCN(C(=O)CO)C4)cc23)ccc1OC1CCOCC1 [Example 182, 5-(2-(1-(2-hydroxyacetyl)-2,5-dihydro-1H-pyrrol-3-yl)-1H-pyrrolo[2,3-b]pyridin-4-yl)-2-((tetrahydro-2H-pyran-4-yl)oxy)benzonitrile]",35.5 nM,14.8 nM
"Cn1nccc1-c1cc2c(-c3ccc(OC4CCOCC4)c(C#N)c3)ccnc2[nH]1 [Example 181, 5-(2-(1-methyl-1H-pyrazol-5-yl)-1H-pyrrolo[2,3-b]pyridin-4-yl)-2-((tetrahydro-2H-pyran-4-yl)oxy)benzonitrile]",34.8 nM,23.9 nM
"N#Cc1cc(-c2ccnc3[nH]c(C4=CCN(C5COC5)C4)cc23)ccc1OC1CCOCC1 [Example 178, 5-(2-(1-(oxetan-3-yl)-2,5-dihydro-1H-pyrrol-3-yl)-1H-pyrrolo[2,3-b]pyridin-4-yl)-2-((tetrahydro-2H-pyran-4-yl)oxy)benzonitrile]",18.3 nM,7.82 nM
"COc1cc(C#N)cc(-c2ccnc3[nH]c(-c4ccc(N5CCOCC5)cc4)cc23)c1 [Example 33, 3-methoxy-5-(2-(4-morpholinophenyl)-1H-pyrrolo[2,3-b]pyridin-4-yl)benzonitrile]",> 1000 nM,14.5 nM
"CN1CCN(C(=O)c2cc3c(-c4ccc(OC5CCOCC5)c(C#N)c4)ccnc3[nH]2)CC1 [Example 118, 5-(2-(4-methylpiperazine-1-carbonyl)-1H-pyrrolo[2,3-b]pyridin-4-yl)-2-((tetrahydro-2H-pyran-4-yl)oxy)benzonitrile]",291 nM,1000 nM
"N#Cc1cc(-c2ncnc3[nH]c(-c4ccc(N5CCOCC5)cc4)cc23)ccc1O[C@@H]1CCNC1 [Example 106, (R)-5-(6-(4-morpholinophenyl)-7H-pyrrolo[2,3-d]pyrimidin-4-yl)-2-(pyrrolidin-3-yloxy)benzonitrile]",19 nM,4.94 nM
"N#Cc1cc(-c2ccnc3[nH]c(-c4ccc(N5CCOCC5)cc4)cc23)ccc1N1CCCC1 [Example 49, 5-(2-(4-morpholinophenyl)-1H-pyrrolo[2,3-b]pyridin-4-yl)-2-(pyrrolidin-1-yl)benzonitrile]",> 78 nM,7.05 nM
"N#Cc1cc(-c2ncnc3[nH]c(-c4ccc(C(=O)N5CCCC5)cc4)cc23)ccc1OC1CCN(C(=O)CO)CC1 [Example 162, 2-((1-(2-Hydroxyacetyl)piperidin-4-yl)oxy)-5-(6-(4-(pyrrolidine-1-carbonyl)phenyl)-7H-pyrrolo[2,3-d]pyrimidin-4-yl)benzonitrile]",2.68 nM,1.48 nM
"N#Cc1cc(-c2ccnc3[nH]c(-c4ccc(N5CCOCC5)cc4)cc23)ccc1F [Example 58, 2-fluoro-5-(2-(4-morpholinophenyl)-1H-pyrrolo[2,3-b]pyridin-4-yl)benzonitrile]",> 1000 nM,6.06 nM
"N#Cc1cc(-c2ccnc3[nH]c(-c4ccc(N5CCOCC5)cc4)cc23)ccc1N1CC(O)C1 [Example 52, 2-(3-hydroxyazetidin-1-yl)-5-(2-(4-morpholinophenyl)-1H-pyrrolo[2,3-b]pyridin-4-yl)benzonitrile]",3.33 nM,15.6 nM
N#Cc1cc(-c2ccnc3[nH]c(-c4cc5ccccc5[nH]4)cc23)ccc1OC1CCOCC1 [Example 38],76.8 nM,32.5 nM
"CC(C)(O)c1ccc(-c2cc3c(-c4ccc(CN5CCOCC5)c(C#N)c4)ncnc3[nH]2)cc1 [Example 111, 5-(6-(4-(2-hydroxypropan-2-yl)phenyl)-7H-pyrrolo[2,3-d]pyrimidin-4-yl)-2-(morpholinomethyl)benzonitrile]",279 nM,36.9 nM
"CC(C)(O)c1ccc(-c2cc3c(-c4ccc(OC5CCOCC5)c(C#N)c4)ncnc3[nH]2)cn1 [Example 129, 5-(6-(6-(2-hydroxypropan-2-yl)pyridin-3-yl)-7H-pyrrolo[2,3-d]pyrimidin-4-yl)-2-((tetrahydro-2H-pyran-4-yl)oxy)benzonitrile]",17.4 nM,2.77 nM
"N#Cc1cc(-c2ccnc3[nH]c(-c4ccc(C5(O)COC5)cc4)cc23)ccc1OC1CCOCC1 [Example 8, 5-(2-(4-(3-hydroxyoxetan-3-yl)phenyl)-1H-pyrrolo[2,3-b]pyridin-4-yl)-2-((tetrahydro-2H-pyran-4-yl)oxy)benzonitrile]",6.99 nM,3.09 nM
"CC1(C)C(=O)Nc2cc(-c3cc4c(-c5ccc(OC6CCOCC6)c(C#N)c5)ccnc4[nH]3)ccc21 [Example 76, 5-(2-(3,3-dimethyl-2-oxoindolin-6-yl)-1H-pyrrolo[2,3-b]pyridin-4-yl)-2-((tetrahydro-2H-pyran-4-yl)oxy)benzonitrile]",> 1000 nM,5.76 nM
"N#Cc1cc(-c2ccnc3[nH]c(-c4cccc(CN5CCOCC5)c4)cc23)ccc1OC1CCOCC1 [Example 39, 5-(2-(3-(morpholinomethyl)phenyl)-1H-pyrrolo[2,3-b]pyridin-4-yl)-2-((tetrahydro-2H-pyran-4-yl)oxy)benzonitrile]",10.7 nM,10.1 nM
"N#Cc1cc(-c2ccnc3[nH]c(-c4ccc5c(c4)OCC(=O)N5)cc23)ccc1OC1CCOCC1 [Example 75, 5-(2-(3-oxo-3,4-dihydro-2H-benzo[b][1,4]oxazin-7-yl)-1H-pyrrolo[2,3-b]pyridin-4-yl)-2-((tetrahydro-2H-pyran-4-yl)oxy)benzonitrile]",10.5 nM,6.28 nM

# Further lines, results first:
IC50 (IKKε),IC50 (TBK1),SMILES
9.86 nM,2.25 nM,"N#Cc1cc(-c2ncnc3[nH]c(-c4ccc(N5CCOCC5)cc4)nc23)ccc1OC1CCN(C=O)CC1 [Example 250, 2-((1-formylpiperidin-4-yl)oxy)-5-(8-(4-morpholinophenyl)-9H-purin-6-yl)benzonitrile]"
1000 nM,3.33 nM,"N#Cc1cc(-c2ncnc3[nH]c(-c4ccc(N5CCOCC5)c(F)c4)nc23)ccc1OC1CCOCC1 [Example 242, 5-(8-(3-fluoro-4-morpholinophenyl)-9H-purin-6-yl)-2-((tetrahydro-2H-pyran-4-yl)oxy)benzonitrile]"
14.5 nM,1.62 nM,"CC(C)(O)c1ccc(-c2nc3c(-c4ccc(OC5CCOCC5)c(C#N)c4)ncnc3[nH]2)cc1 [Example 228, 5-(8-(4-(2-hydroxypropan-2-yl)phenyl)-9H-purin-6-yl)-2-((tetrahydro-2H-pyran-4-yl)oxy)benzonitrile]"
18.6 nM,9.25 nM,"N#Cc1nc(-c2ccnc3[nH]c(-c4ccc(N5CCOCC5)cc4)nc23)ccc1OC1CCOCC1 [Example 304, 6-(2-(4-morpholinophenyl)-3H-imidazo[4,5-b]pyridin-7-yl)-3-((tetrahydro-2H-pyran-4-yl)oxy)picolinonitrile]"
1000 nM,2.15 nM,"N#Cc1cc(-c2ncnc3[nH]c(-c4ccc(N5CCOCC5)cc4)cc23)ccc1N1CC(O)C1 [Example 199, 2-(3-hydroxyazetidin-1-yl)-5-(6-(4-morpholinophenyl)-7H-pyrrolo[2,3-d]pyrimidin-4-yl)benzonitrile]"
21.3 nM,44.2 nM,"Cn1cc(-c2nc3c(-c4ccc(OC5CCOCC5)c(C#N)c4)ccnc3[nH]2)cn1 [Example 307, 5-(2-(1-methyl-1H-pyrazol-4-yl)-3H-imidazo[4,5-b]pyridin-7-yl)-2-((tetrahydro-2H-pyran-4-yl)oxy)benzonitrile]"
1.48 nM,0.503 nM,"N#Cc1cc(-c2ncnc3[nH]c(-c4ccc(N5CCOCC5)cc4)cc23)ccc1OC1CCN(C(=O)CO)CC1 [Example 220, 2-((1-(2-hydroxyacetyl)piperidin-4-yl)oxy)-5-(6-(4-morpholinophenyl)-7H-pyrrolo[2,3-d]pyrimidin-4-yl)benzonitrile]"
193 nM,44.7 nM,"N#Cc1cc(-c2ccnc3[nH]c(-c4ccc(N5CCOCC5)cc4)cc23)ccc1OC1CCCOC1 (centres unmarked) [Example 239, 5-(2-(4-morpholinophenyl)-1H-pyrrolo[2,3-b]pyridin-4-yl)-2-((tetrahydro-2H-pyran-3-yl)oxy)benzonitrile]"
113 nM,15.8 nM,"N#Cc1cc(-c2ncnc3[nH]c(-c4ccc(N5CCOCC5)cc4)nc23)ccc1O[C@@H]1CCNC1 [Example 207, (R)-5-(8-(4-morpholinophenyl)-9H-purin-6-yl)-2-(pyrrolidin-3-yloxy)benzonitrile]"
324 nM,13.4 nM,"N#Cc1cc(-c2cc3c(-c4ccc(N5CC(O)C5)c(C#N)c4)ncnc3[nH]2)ccc1N1CC(O)C1 [Example 230, 5,5′-(7H-pyrrolo[2,3-d]pyrimidine-4,6-diyl)bis(2-(3-hydroxyazetidin-1-yl)benzonitrile)]"
